Measured values from PubChem BioAssay (NCI).
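In this assay, cells in 96-well plates receive the compound at five concentrations for 48 hours. Endpoints are linearly interpolated between the surrounding concentrations. GI50 is the concentration that inhibits growth by half. TGI denotes the concentration required for complete inhibition of growth.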

Legend:
Assay in all cases: NCI anticancer screen, dose series, 48 h
OVCAR-3 ovarian = test system: OVCAR-3 ovarian
NCI-H460 lung = test system: NCI-H460 lung
SF-539 CNS = test system: SF-539 CNS
UO-31 renal = test system: UO-31 renal
OVCAR-8 ovarian = test system: OVCAR-8 ovarian
HOP-92 NSCLC = test system: HOP-92 NSCLC
M14 melanoma = test system: M14 melanoma
COLO 205 colon = test system: COLO 205 colon
SF-268 CNS = test system: SF-268 CNS
786-0 renal = test system: 786-0 renal
A498 renal = test system: A498 renal
UACC-62 melanoma = test system: UACC-62 melanoma
SR leukemia = test system: SR leukemia
U251 CNS = test system: U251 CNS
NCI-H23 lung = test system: NCI-H23 lung
EKVX NSCLC = test system: EKVX NSCLC
T-47D breast = test system: T-47D breast
BT-549 breast = test system: BT-549 breast
HCT-116 colon = test system: HCT-116 colon
SNB-19 CNS = test system: SNB-19 CNS
MDA-MB-435 = test system: MDA-MB-435
PC-3 prostate = test system: PC-3 prostate
SK-OV-3 ovarian = test system: SK-OV-3 ovarian
IGROV1 ovarian = test system: IGROV1 ovarian
DU-145 prostate = test system: DU-145 prostate
TK-10 renal = test system: TK-10 renal
SNB-75 CNS = test system: SNB-75 CNS
OVCAR-4 ovarian = test system: OVCAR-4 ovarian
MALME-3M melanoma = test system: MALME-3M melanoma
SF-295 CNS = test system: SF-295 CNS
K-562 leukemia = test system: K-562 leukemia
SN12C renal = test system: SN12C renal
HS 578T breast = test system: HS 578T breast
SK-MEL-5 melanoma = test system: SK-MEL-5 melanoma
UACC-257 melanoma = test system: UACC-257 melanoma
HCT-15 colon = test system: HCT-15 colon
NCI-H226 lung = test system: NCI-H226 lung
HT29 colon = test system: HT29 colon
RPMI-8226 leukemia = test system: RPMI-8226 leukemia
SW-620 colon = test system: SW-620 colon
SK-MEL-28 melanoma = test system: SK-MEL-28 melanoma
NCI-H522 lung = test system: NCI-H522 lung
MOLT-4 leukemia = test system: MOLT-4 leukemia
RXF 393 renal = test system: RXF 393 renal
A549 NSCLC = test system: A549 NSCLC
NCI/ADR-RES ovarian = test system: NCI/ADR-RES ovarian
OVCAR-5 ovarian = test system: OVCAR-5 ovarian
KM12 colon = test system: KM12 colon
CCRF-CEM leukemia = test system: CCRF-CEM leukemia
ACHN renal = test system: ACHN renal
MCF7 breast = test system: MCF7 breast
HOP-62 NSCLC = test system: HOP-62 NSCLC
LOX IMVI melanoma = test system: LOX IMVI melanoma
HL-60(TB) leukemia = test system: HL-60(TB) leukemia
HCC-2998 colon = test system: HCC-2998 colon
MDA-MB-231 breast = test system: MDA-MB-231 breast
CAKI-1 renal = test system: CAKI-1 renal
SK-MEL-2 melanoma = test system: SK-MEL-2 melanoma
MDA-N = test system: MDA-N

## COc1cc(/C=C/c2cc(/C=C/c3ccc(O)c(OC)c3)n(C(=O)Nc3ccc(F)cc3)n2)ccc1O
OVCAR-3 ovarian
  GI50: 0.474 µM
  TGI: 3.13 µM
NCI-H460 lung
  GI50: 0.546 µM
  TGI: 12.4 µM
SF-539 CNS
  GI50: 0.46 µM
  TGI: 5.31 µM
UO-31 renal
  GI50: 0.587 µM
  TGI: 6.27 µM
OVCAR-8 ovarian
  GI50: 1.5 µM
  TGI: 4.79 µM
HOP-92 NSCLC
  GI50: 2.12 µM
  TGI: 8.07 µM
M14 melanoma
  GI50: 0.46 µM
  TGI: 7.5 µM
COLO 205 colon
  GI50: 2.09 µM
  TGI: 3.7 µM
SF-268 CNS
  GI50: 0.602 µM
  TGI: 10 µM
786-0 renal
  GI50: 1.08 µM
  TGI: 6.8 µM
A498 renal
  GI50: 2.42 µM
  TGI: 6.46 µM
UACC-62 melanoma
  GI50: 0.817 µM
  TGI: 6.68 µM
SR leukemia
  GI50: 0.278 µM
U251 CNS
  GI50: 0.769 µM
  TGI: 10.5 µM
NCI-H23 lung
  GI50: 0.727 µM
  TGI: 4.45 µM
EKVX NSCLC
  GI50: 3.05 µM
  TGI: 43.7 µM
T-47D breast
  GI50: 2.4 µM
  TGI: 9.99 µM
BT-549 breast
  GI50: 1.18 µM
  TGI: > 19.7 µM
HCT-116 colon
  GI50: 0.422 µM
  TGI: 10.3 µM
SNB-19 CNS
  GI50: 1.23 µM
  TGI: 22.7 µM
MDA-MB-435
  GI50: 0.214 µM
  TGI: 0.561 µM
PC-3 prostate
  GI50: 0.957 µM
  TGI: 12.8 µM
SK-OV-3 ovarian
  GI50: 1.04 µM
  TGI: 4.33 µM
IGROV1 ovarian
  GI50: 2.38 µM
  TGI: 34.3 µM
DU-145 prostate
  GI50: 1.53 µM
  TGI: 11.4 µM
TK-10 renal
  GI50: 3.43 µM
  TGI: 19.2 µM
SNB-75 CNS
  GI50: 0.551 µM
  TGI: 9.48 µM
OVCAR-4 ovarian
  GI50: 1.36 µM
  TGI: 7.57 µM
MALME-3M melanoma
  GI50: 0.743 µM
  TGI: 7.85 µM
SF-295 CNS
  GI50: 2.63 µM
  TGI: 29.7 µM
K-562 leukemia
  GI50: 0.371 µM
  TGI: 2.91 µM
SN12C renal
  GI50: 0.953 µM
  TGI: 34.1 µM
HS 578T breast
  GI50: 0.689 µM
  TGI: 6.11 µM
SK-MEL-5 melanoma
  GI50: 0.418 µM
  TGI: 3.25 µM
UACC-257 melanoma
  GI50: 2.17 µM
  TGI: 9.12 µM
HCT-15 colon
  GI50: 0.566 µM
  TGI: 21.8 µM
NCI-H226 lung
  GI50: 2.62 µM
  TGI: 9.79 µM
HT29 colon
  GI50: 2.03 µM
  TGI: 4.69 µM
RPMI-8226 leukemia
  GI50: 0.454 µM
  TGI: 3.37 µM
SW-620 colon
  GI50: 0.504 µM
  TGI: 10.6 µM
SK-MEL-28 melanoma
  GI50: 0.912 µM
  TGI: 7.84 µM
NCI-H522 lung
  GI50: 0.25 µM
  TGI: 1.21 µM
MOLT-4 leukemia
  GI50: 0.471 µM
  TGI: > 22.8 µM
RXF 393 renal
  GI50: 0.268 µM
  TGI: 0.994 µM
A549 NSCLC
  GI50: 2.44 µM
  TGI: 18.3 µM
NCI/ADR-RES ovarian
  GI50: 0.449 µM
  TGI: 27.4 µM
OVCAR-5 ovarian
  GI50: 3.99 µM
  TGI: 45 µM
KM12 colon
  GI50: 0.46 µM
  TGI: 9.12 µM
CCRF-CEM leukemia
  GI50: 0.367 µM
  TGI: 9.57 µM
ACHN renal
  GI50: 0.704 µM
  TGI: 61.2 µM
MCF7 breast
  GI50: 0.402 µM
  TGI: 7.66 µM
HOP-62 NSCLC
  GI50: 1.07 µM
  TGI: 9.36 µM
LOX IMVI melanoma
  GI50: 0.476 µM
  TGI: 4.26 µM
HL-60(TB) leukemia
  GI50: 0.364 µM
  TGI: 1.93 µM
HCC-2998 colon
  GI50: 2.53 µM
  TGI: 10.6 µM
MDA-MB-231 breast
  GI50: 2.16 µM
  TGI: > 65.3 µM
CAKI-1 renal
  GI50: 0.77 µM
  TGI: 49.5 µM
SK-MEL-2 melanoma
  GI50: 0.515 µM
  TGI: 3.32 µM

## NC1CC(=O)c2cscc21 (configuration not stated)
OVCAR-3 ovarian
  TGI: 34.8 µM
NCI-H460 lung
  TGI: > 100 µM
SF-539 CNS
  TGI: > 100 µM
UO-31 renal
  TGI: 22.1 µM
OVCAR-8 ovarian
  TGI: > 100 µM
HOP-92 NSCLC
  TGI: 49.6 µM
M14 melanoma
  TGI: > 100 µM
COLO 205 colon
  TGI: 52 µM
786-0 renal
  TGI: 28.4 µM
U251 CNS
  TGI: > 100 µM
NCI-H23 lung
  TGI: > 100 µM
EKVX NSCLC
  TGI: > 100 µM
MDA-N
  TGI: > 100 µM
T-47D breast
  TGI: 40.3 µM
BT-549 breast
  TGI: > 100 µM
HCT-116 colon
  TGI: > 100 µM
SNB-19 CNS
  TGI: > 100 µM
MDA-MB-435
  TGI: 64.2 µM
PC-3 prostate
  TGI: > 100 µM
SK-OV-3 ovarian
  TGI: > 100 µM
IGROV1 ovarian
  TGI: > 100 µM
DU-145 prostate
  TGI: > 100 µM
TK-10 renal
  TGI: 33.6 µM
SNB-75 CNS
  TGI: > 100 µM
OVCAR-4 ovarian
  TGI: > 100 µM
SF-295 CNS
  TGI: > 100 µM
K-562 leukemia
  TGI: > 100 µM
SN12C renal
  TGI: > 100 µM
SK-MEL-5 melanoma
  TGI: > 100 µM
UACC-257 melanoma
  TGI: > 100 µM
HCT-15 colon
  TGI: 88.5 µM
HT29 colon
  TGI: > 100 µM
RPMI-8226 leukemia
  TGI: > 100 µM
SW-620 colon
  TGI: 37.4 µM
SK-MEL-28 melanoma
  TGI: > 100 µM
MOLT-4 leukemia
  TGI: > 100 µM
RXF 393 renal
  TGI: > 100 µM
A549 NSCLC
  TGI: 41.7 µM
NCI/ADR-RES ovarian
  TGI: > 100 µM
OVCAR-5 ovarian
  TGI: > 100 µM
KM12 colon
  TGI: 43.1 µM
CCRF-CEM leukemia
  TGI: 38.2 µM
HOP-62 NSCLC
  TGI: > 100 µM
LOX IMVI melanoma
  TGI: > 100 µM
HL-60(TB) leukemia
  TGI: 33.3 µM
MDA-MB-231 breast
  TGI: > 100 µM
CAKI-1 renal
  TGI: 29.3 µM
SK-MEL-2 melanoma
  TGI: > 100 µM

## COC(=O)NC(Nc1ccccn1)(C(F)(F)F)C(F)(F)F
OVCAR-3 ovarian
  TGI: > 100 µM
NCI-H460 lung
  TGI: > 100 µM
SF-539 CNS
  TGI: > 100 µM
UO-31 renal
  TGI: > 100 µM
OVCAR-8 ovarian
  TGI: > 100 µM
HOP-92 NSCLC
  TGI: > 100 µM
M14 melanoma
  TGI: > 100 µM
SF-268 CNS
  TGI: > 100 µM
786-0 renal
  TGI: > 100 µM
A498 renal
  TGI: > 100 µM
UACC-62 melanoma
  TGI: > 100 µM
SR leukemia
  TGI: > 100 µM
U251 CNS
  TGI: > 100 µM
NCI-H23 lung
  TGI: > 100 µM
EKVX NSCLC
  TGI: > 100 µM
MDA-N
  TGI: > 100 µM
T-47D breast
  TGI: > 100 µM
BT-549 breast
  TGI: > 100 µM
HCT-116 colon
  TGI: > 100 µM
SNB-19 CNS
  TGI: > 100 µM
MDA-MB-435
  TGI: > 100 µM
SK-OV-3 ovarian
  TGI: > 100 µM
IGROV1 ovarian
  TGI: > 100 µM
DU-145 prostate
  TGI: > 100 µM
TK-10 renal
  TGI: > 100 µM
SNB-75 CNS
  TGI: > 100 µM
MALME-3M melanoma
  TGI: > 100 µM
K-562 leukemia
  TGI: > 100 µM
HS 578T breast
  TGI: > 100 µM
SK-MEL-5 melanoma
  TGI: > 100 µM
UACC-257 melanoma
  TGI: > 100 µM
HCT-15 colon
  TGI: > 100 µM
NCI-H226 lung
  TGI: > 100 µM
HT29 colon
  TGI: > 100 µM
RPMI-8226 leukemia
  TGI: > 100 µM
SW-620 colon
  TGI: > 100 µM
SK-MEL-28 melanoma
  TGI: > 100 µM
NCI-H522 lung
  TGI: > 100 µM
MOLT-4 leukemia
  TGI: > 100 µM
RXF 393 renal
  TGI: > 100 µM
A549 NSCLC
  TGI: > 100 µM
NCI/ADR-RES ovarian
  TGI: > 100 µM
OVCAR-5 ovarian
  TGI: > 100 µM
KM12 colon
  TGI: > 100 µM
CCRF-CEM leukemia
  TGI: > 100 µM
ACHN renal
  TGI: > 100 µM
MCF7 breast
  TGI: > 100 µM
HOP-62 NSCLC
  TGI: > 100 µM
LOX IMVI melanoma
  TGI: > 100 µM
HL-60(TB) leukemia
  TGI: > 100 µM
HCC-2998 colon
  TGI: > 100 µM
MDA-MB-231 breast
  TGI: > 100 µM
CAKI-1 renal
  TGI: > 100 µM
SK-MEL-2 melanoma
  TGI: > 100 µM
